Results as given in patent US20260242395A1, “AMINOHETEROARYL KINASE INHIBITORS” (ALLORION THERAPEUTICS INC, priority 2022, published 2026).

Assays:
CDK6/CyclinD3 = target: T1, CDK6/CyclinD3 (Homo sapiens, UniProt Q00534); test: CDK6/CyclinD3 kinase inhibitory activity (Caliper mobility shift); format: biochemical; conditions: enzyme 15 nM, ATP 800 μM, 28° C. 30 min; read-out: CDK6/Cyclin D3 IC50
T1 construct: purchased Carna 04-107
Procedure: CDK6/CyclinD3 kinase inhibitory activity (IC50): 5 μl of various dilutions of test compound in 1× kinase buffer (50 mM HEPES pH 7.5, 10 mM MgCl2, 2 mM DTT and 0.01% Brij-35) was mixed with 10 μL of CDK6/CyclinD3 (Carna, 04-107 #, final concentration 15 nM in 1× Kinase buffer) in 384 plates and incubated at room temperature for 10 min. To initiate each reaction, 10 μL of peptide solution containing fluorescently-labeled -peptide 8(5-FAM-IPTSPITTTYFFFKKK-COOH, GL, 112396 #, final concentration 3000 nM) and ATP (final concentration 800 μM for CDK6/CyclinD3 in 1× Kinase buffer was added to each of the wells containing test compound and CDK6/CyclinD3. The reaction is then allowed to proceed at 28° C. for 30 min and terminated by the addition of 25 μL stop buffer (100 mM HEPES pH 7.5, 50 mM EDTA, 0.2% Coating Reagent #3 (Perkin Elmer, 760050 #) and 0.015% Brij-35).
(§1) Following the kinase reaction, Caliper EZ reader II (Downstream voltages: −500V, Upstream voltages: −2250V, Base pressure −0.5 PSI, Screen pressure −1.2 PSI) was used to separate the phosphorylated (product) and the unphosphorylated (substrate) fluorescently-labeled peptide 8 based on their different mobility. Both substrate and product were measured and the ratio of these values were used to generate % conversion by Caliper EZ reader II. These conversion values were then transformed into % inhibition of kinase activity using the formula: % Inhibition=[(MA−X)/(MA−MI)]×100% where MA=conversion value of DMSO only controls, MI=conversion value of no enzyme controls and X=conversion value at any given compound dose. IC50 values were then calculated by plotting dose-response curves and then using the XLfit application in Excel software.

CDK4/CyclinD1 = target: T2, CDK4/CyclinD1 (Homo sapiens, UniProt P11802); test: CDK4/CyclinD1 kinase inhibitory activity (Caliper mobility shift); format: biochemical; conditions: enzyme 20 nM, ATP 672 uM, 28° C. 30 min; read-out: CDK4/Cyclin D1 IC50
T2 construct: purchased ProQinase 0142-0143-1
T2 sequence (P11802 whole entry): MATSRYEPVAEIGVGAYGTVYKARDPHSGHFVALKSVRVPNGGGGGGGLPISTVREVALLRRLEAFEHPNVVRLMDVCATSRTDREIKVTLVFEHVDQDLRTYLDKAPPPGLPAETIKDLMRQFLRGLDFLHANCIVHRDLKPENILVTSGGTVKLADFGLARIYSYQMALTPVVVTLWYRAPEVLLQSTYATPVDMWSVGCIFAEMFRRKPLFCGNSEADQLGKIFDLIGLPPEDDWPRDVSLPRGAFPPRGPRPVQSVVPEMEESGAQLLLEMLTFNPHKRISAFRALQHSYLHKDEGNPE
T2 sequence (P24385 whole entry partner): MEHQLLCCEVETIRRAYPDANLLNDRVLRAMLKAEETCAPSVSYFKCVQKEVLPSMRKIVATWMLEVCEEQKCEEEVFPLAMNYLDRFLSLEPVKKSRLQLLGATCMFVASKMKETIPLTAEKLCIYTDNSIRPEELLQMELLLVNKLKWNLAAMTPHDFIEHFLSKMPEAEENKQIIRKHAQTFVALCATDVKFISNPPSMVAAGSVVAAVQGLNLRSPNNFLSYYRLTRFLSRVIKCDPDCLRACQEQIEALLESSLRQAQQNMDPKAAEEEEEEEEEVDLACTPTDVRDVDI
Procedure: CDK4/CyclinD1 kinase inhibitory activity (IC50): 5 μl of various dilutions of test compound in 1× kinase buffer (20 mM HEPES, pH 7.5, 10 mM MgCl2, 2 mM DTT and 0.01% Triton X-100) was mixed with 10 μL of either CDK4/Cyclin D1 (ProQinase, 0142-0143-1 #, final concentration 20 nM in 1× Kinase buffer) or in 384 plates and incubated at room temperature for 10 min. To initiate each reaction, 10 μL of peptide solution containing fluorescently-labeled-peptide 8(5-FAM-IPTSPITTTYFFFKKK-COOH, GL, 112396 #, final concentration 3000 nM) and ATP (final concentration 672 uM for CDK4/CyclinD1) in 1×Kinase buffer was added to each of the wells containing test compound and CDK4/CyclinD1 mixture. The reaction is then allowed to proceed at 28° C. for 30 min and terminated by the addition of 25 μL stop buffer (100 mM HEPES pH 7.5, 50 mM EDTA, 0.2% Coating Reagent #3 (Perkin Elmer, 760050 #) and 0.015% Brij-35).
as §1

T1 sequence (Q00534 whole entry): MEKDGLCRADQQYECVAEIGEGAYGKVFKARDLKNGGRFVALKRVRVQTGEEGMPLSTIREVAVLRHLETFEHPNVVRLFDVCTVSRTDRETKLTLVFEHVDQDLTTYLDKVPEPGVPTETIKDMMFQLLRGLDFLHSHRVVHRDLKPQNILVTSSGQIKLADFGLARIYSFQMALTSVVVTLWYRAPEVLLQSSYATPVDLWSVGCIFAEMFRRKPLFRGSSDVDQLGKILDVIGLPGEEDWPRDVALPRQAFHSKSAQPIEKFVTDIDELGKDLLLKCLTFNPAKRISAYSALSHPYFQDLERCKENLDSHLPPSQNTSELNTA
T1 sequence (P30281 whole entry partner): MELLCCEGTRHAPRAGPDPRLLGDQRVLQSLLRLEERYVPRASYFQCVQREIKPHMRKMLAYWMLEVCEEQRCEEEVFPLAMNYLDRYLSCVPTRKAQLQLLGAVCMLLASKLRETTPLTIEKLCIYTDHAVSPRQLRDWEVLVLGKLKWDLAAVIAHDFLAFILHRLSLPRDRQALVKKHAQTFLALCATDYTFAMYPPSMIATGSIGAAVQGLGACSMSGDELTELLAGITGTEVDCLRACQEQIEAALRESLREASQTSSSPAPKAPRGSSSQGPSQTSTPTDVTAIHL

Structure (SMILES)	IC50 (CDK6/CyclinD3)	IC50 (CDK4/CyclinD1)
O[C@@H]1COCC[C@H]1Nc1ncc(Cl)c(-c2cc(F)c3ncc4c(c3c2)C2CCC(C4)N2)n1 (single isomer, unassigned) [Example 20a]	≥ 1000 nM	100 to 1000 nM
CC1NCCc2cnc3c(F)cc(-c4nc(N[C@@H]5CCOC[C@H]5O)ncc4Cl)cc3c21 (single isomer, unassigned) [Example 31b]	100 to 1000 nM	< 10 nM
CNC(C)c1cnc2c(F)cc(-c3nc(N[C@@H]4CCOC[C@H]4O)ncc3Cl)cc2c1 (single isomer, unassigned) [Example 32b]	100 to 1000 nM	10 to 100 nM
CC1(O)CCc2nc3c(F)cc(-c4nc(N[C@@H]5CCOC[C@H]5O)ncc4Cl)cc3cc21 (single isomer, unassigned) [Example 38a]	10 to 100 nM	< 10 nM
CCC(O)c1cc2cc(-c3nc(N[C@@H]4CCOC[C@H]4O)ncc3Cl)cc(F)c2nc1C (single isomer, unassigned) [Example 39b]	100 to 1000 nM	< 10 nM
CNC(C)c1cnc2c(F)cc(-c3nc(N[C@@H]4CCOC[C@H]4O)ncc3Cl)cc2c1C (single isomer, unassigned) [Example 48a]	100 to 1000 nM	< 10 nM
CNC(C)c1cc2cc(-c3nc(N[C@@H]4CCOC[C@H]4O)ncc3F)cc(F)c2nc1C (single isomer, unassigned) [Example 54a]	100 to 1000 nM	< 10 nM
CNC(C)c1cc2cc(-c3nc(N[C@@H]4CCOC[C@H]4O)ncc3F)cc(F)c2nc1C (single isomer, unassigned) [Example 54b]	100 to 1000 nM	< 10 nM
CNC(C)c1cnc2c(F)cc(-c3nc(N[C@@H]4CCOC[C@H]4O)ncc3F)cc2c1C (single isomer, unassigned) [Example 59b]	100 to 1000 nM	10 to 100 nM
CNC(C)c1cnc2c(F)cc(-c3nc(N[C@@H]4CCOC[C@H]4O)ncc3Cl)cc2c1Cl (single isomer, unassigned) [Example 63a]	100 to 1000 nM	10 to 100 nM
Cc1nc2c(F)cc(-c3nc(N[C@@H]4CCOC[C@H]4O)ncc3Cl)cc2cc1C(C)NC1CC1 (single isomer, unassigned) [Example 73a]	100 to 1000 nM	10 to 100 nM
Cc1nc2c(F)cc(-c3nc(N[C@@H]4CCOC[C@H]4O)ncc3F)cc2cc1C(C)NC1CC1 (single isomer, unassigned) [Example 74b]	100 to 1000 nM	< 10 nM

Next, values leading:

IC50 (CDK6/CyclinD3)	IC50 (CDK4/CyclinD1)	Structure (SMILES)
≥ 1000 nM	10 to 100 nM	CC1NCCc2cnc3c(F)cc(-c4nc(N[C@@H]5CCOC[C@H]5O)ncc4Cl)cc3c21 (single isomer, unassigned) [Example 31a]
10 to 100 nM	< 10 nM	CC1(O)CCc2nc3c(F)cc(-c4nc(N[C@@H]5CCOC[C@H]5O)ncc4Cl)cc3cc21 (single isomer, unassigned) [Example 38b]
100 to 1000 nM	< 10 nM	CCC(O)c1cc2cc(-c3nc(N[C@@H]4CCOC[C@H]4O)ncc3Cl)cc(F)c2nc1C (single isomer, unassigned) [Example 39a]
100 to 1000 nM	< 10 nM	CC(O)c1cnc2c(F)cc(-c3nc(N[C@@H]4CCOC[C@H]4O)ncc3Cl)cc2c1Cl (single isomer, unassigned) [Example 40b]
100 to 1000 nM	10 to 100 nM	CNC(C)c1cnc2c(F)cc(-c3nc(N[C@@H]4CCOC[C@H]4O)ncc3Cl)cc2c1C (single isomer, unassigned) [Example 48b]
≥ 1000 nM	10 to 100 nM	Cc1nc2c(F)cc(-c3nc(N[C@@H]4CCOC[C@H]4O)ncc3Cl)cc2cc1C1CCCN1 (single isomer, unassigned) [Example 57b]
100 to 1000 nM	10 to 100 nM	CNC(C)c1cnc2c(F)cc(-c3nc(N[C@@H]4CCOC[C@H]4O)ncc3F)cc2c1Cl (single isomer, unassigned) [Example 64a]
100 to 1000 nM	10 to 100 nM	CNC(C)c1cnc2c(F)cc(-c3nc(N[C@@H]4CCOC[C@H]4O)ncc3F)cc2c1Cl (single isomer, unassigned) [Example 64b]
